{"source": "patent US6482255B1", "about": "“Disazodyes for ink jet printing” (Avecia Limited, priority 1997, dated 2002)", "test": "Solubility of dye or dye composition in water", "assay_type": "physicochemical", "protocol": "The method of Example 1 was repeated except that the condensation reaction with ethanolamine in stage (iv) was stopped after 2.5 hours. The product was a mixture of Dye (A), Dye (B) and Dye (C) in relative proportions 43:35:22 by weight. This dye mixture has a solubility of 10% in water at 20° C. compared to a solubility of 3% for Dye (A) alone under the same conditions.\nThe ratio of Dyes (A), (B) and (C) in Example 4 may be varied by altering the time and temperature of the ethanolamine condensation step (Example 1, step (iv)). The solubility of a variety of dye compositions in water at 20° C. and pH 9.5 is shown in Table 2 below together with optical density, light fastness (ΔE after 50 hours) and wet-fastness results of prints prepared from these compositions. The prints were prepared by printing an ink formed by dissolving 2.5 parts of each composition in 97.5 parts of a mixture consisting of 88 parts water, 5 parts thiodiglycol, 5 parts 2-pyrrolidone and 2 parts Surfynol 465™ (a non-ionic surfactant) onto the substrate shown in the third column of Table 2 using a Canon 4300 ink jet printer.", "data": [{"smiles": "CNCCCNc1nc(NCCO)nc(Nc2ccc(/N=N/c3c(N)ccc4cc(S(=O)(=O)O)cc(O)c34)c(S(=O)(=O)O)c2)n1", "note": "[Dye (1)]", "values": [{"measurement": "solubility in water", "setting": "water at 20° C.", "value": 3, "unit": "%"}, {"measurement": "Solubility (%)", "setting": "water at 20° C. and pH 9.5", "value": 3, "unit": "%"}]}]}
